Inconclusive results and toxic doses are left out.
Test system: CD2F1 mice, L1210 leukemia ip, survival T/C
Assay: NCI In Vivo Anticancer Drug Screen. Data for tumor model L1210 Leukemia (intraperitoneal) in CD2F1 (CDF1) mice
Settings: higher = longer survival
Method in brief: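 Read-out first: treated-group measurement over vehicle-control measurement, expressed as a ratio. Animals bore a transplanted tumor line and were dosed with compound or vehicle.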

[1] = endpoint: mean survival time, dose: 50.0 mg/kg/injection, schedule: Q01DX009 (ip), vehicle: saline with Tween-80
[2] = endpoint: mean survival time, dose: 100.0 mg/kg/injection, schedule: Q01DX009 (ip), vehicle: saline with Tween-80
[3] = endpoint: mean survival time, dose: 200.0 mg/kg/injection, schedule: Q01DX009 (ip), vehicle: saline with Tween-80
[4] = endpoint: mean survival time, dose: 100.0 mg/kg/injection, schedule: Q04DX003 (ip), vehicle: saline with Tween-80
[5] = endpoint: mean survival time, dose: 200.0 mg/kg/injection, schedule: Q04DX003 (ip), vehicle: saline with Tween-80

**Q.** With COc1ccc(C(=O)C2(O)Oc3ccccc3C2=O)cc1 (stereo not given) as the compound, how does the T/C (endpoint: mean survival time, dose: 50.0 mg/kg/injection, schedule: Q01DX001 (ip), vehicle: saline) read?
**A.** 98 % of control

**Q.** What about the T/C (endpoint: mean survival time, dose: 100.0 mg/kg/injection, schedule: Q01DX001 (ip), vehicle: saline) of the same compound?
**A.** 98 % of control

**Q.** What about the T/C (endpoint: mean survival time, dose: 200.0 mg/kg/injection, schedule: Q01DX001 (ip), vehicle: saline) of the same compound?
**A.** 98 % of control

**Q.** What about the T/C (endpoint: mean survival time, dose: 400.0 mg/kg/injection, schedule: Q01DX001 (ip), vehicle: saline) of the same compound?
**A.** 117 % of control

**Q.** Which results are given for COc1ccc(-c2nc3ccc(C)cc3c(=O)o2)cc1?
**A.** T/C [1]: 89 % of control; T/C [2]: 93 % of control; T/C [3]: 89 % of control

**Q.** Which T/C (endpoint: mean survival time, dose: 12.5 mg/kg/injection, schedule: Q01DX005 (ip), vehicle: other) does the source give for COC(=N)/C(C#N)=N/C1OCC(O)C(O)C1O (stereo not given) here?
**A.** 101 % of control

**Q.** And the T/C (endpoint: mean survival time, dose: 25.0 mg/kg/injection, schedule: Q01DX005 (ip), vehicle: other)?
**A.** 102 % of control

**Q.** What about the T/C (endpoint: mean survival time, dose: 50.0 mg/kg/injection, schedule: Q01DX005 (ip), vehicle: other) of the same compound?
**A.** 102 % of control

**Q.** What about the T/C (endpoint: mean survival time, dose: 100.0 mg/kg/injection, schedule: Q01DX005 (ip), vehicle: other) of the same compound?
**A.** 102 % of control

**Q.** And the T/C (endpoint: mean survival time, dose: 200.0 mg/kg/injection, schedule: Q01DX005 (ip), vehicle: other)?
**A.** 101 % of control

**Q.** For COc1cc(/C=N/NC(=O)c2ccccc2)ccc1O, which T/C (endpoint: mean survival time, dose: 100.0 mg/kg/injection, schedule: Q01DX009 (ip), vehicle: Klucel (hydroxypropylcellulose) (HPC)) is on record?
**A.** 97 % of control

**Q.** And the T/C (endpoint: mean survival time, dose: 200.0 mg/kg/injection, schedule: Q01DX009 (ip), vehicle: Klucel (hydroxypropylcellulose) (HPC))?
**A.** 97 % of control

**Q.** What about the T/C (endpoint: mean survival time, dose: 400.0 mg/kg/injection, schedule: Q01DX009 (ip), vehicle: Klucel (hydroxypropylcellulose) (HPC)) of the same compound?
**A.** 97 % of control

**Q.** How did the T/C [4] turn out when O=C(O)C(O)(c1ccccc1)c1ccsc1 (stereo not given) was run?
**A.** 101 % of control

**Q.** What about the T/C [5] of the same compound?
**A.** 98 % of control

**Q.** What about the T/C (endpoint: mean survival time, dose: 400.0 mg/kg/injection, schedule: Q04DX003 (ip), vehicle: saline with Tween-80) of the same compound?
**A.** 103 % of control

**Q.** How did the T/C (endpoint: median survival time, dose: 3.12 mg/kg/injection, schedule: Q01DX009 (ip), vehicle: saline) turn out when CCOC(=O)C(N)C[S][Sn]([CH3])([CH3])[Cl] (stereo not given) was run?
**A.** 98 % of control

**Q.** What about the T/C (endpoint: median survival time, dose: 6.25 mg/kg/injection, schedule: Q01DX009 (ip), vehicle: saline) of the same compound?
**A.** 97 % of control

**Q.** What about the T/C (endpoint: median survival time, dose: 12.5 mg/kg/injection, schedule: Q01DX009 (ip), vehicle: saline) of the same compound?
**A.** 100 % of control

**Q.** What about the T/C (endpoint: median survival time, dose: 25.0 mg/kg/injection, schedule: Q01DX009 (ip), vehicle: saline) of the same compound?
**A.** 89 % of control

**Q.** Which results are given for Cc1ccc2nc(-c3ccc(NC(=O)Nc4cccc(F)c4)cc3)sc2c1?
**A.** T/C [1]: 97 % of control; T/C [2]: 97 % of control

**Q.** How did the T/C (endpoint: mean survival time, dose: 100.0 mg/kg/injection, schedule: Q01DX005 (ip), vehicle: saline with Tween-80) turn out when CCOC(=O)C(CCC(C)C)C(C)=O (stereo not given) was run?
**A.** 93 % of control

**Q.** What about the T/C (endpoint: mean survival time, dose: 200.0 mg/kg/injection, schedule: Q01DX005 (ip), vehicle: saline with Tween-80) of the same compound?
**A.** 103 % of control

**Q.** What about the T/C (endpoint: mean survival time, dose: 400.0 mg/kg/injection, schedule: Q01DX005 (ip), vehicle: saline with Tween-80) of the same compound?
**A.** 106 % of control

**Q.** What does the source list for NNC(=O)NO?
**A.** T/C (endpoint: mean survival time, dose: 12.5 mg/kg/injection, schedule: Q01DX009 (ip), vehicle: saline with Tween-80): 166 % of control; T/C (endpoint: mean survival time, dose: 25.0 mg/kg/injection, schedule: Q01DX009 (ip), vehicle: saline with Tween-80): 162 % of control; T/C [1]: 103 % of control; T/C [2]: 97 % of control; T/C [3]: 87 % of control

**Q.** Which T/C [4] does the source give for COc1ccc2c(c1)C=CC(C#N)N2 (stereo not given) here?
**A.** 87 % of control

**Q.** And the T/C [5]?
**A.** 91 % of control

**Q.** How did the T/C (endpoint: mean survival time, dose: 75.0 mg/kg/injection, schedule: Q01DX001 (ip), vehicle: saline) turn out when CCCCN=C1C(=O)Nc2ccccc21 was run?
**A.** 98 % of control

**Q.** And the T/C (endpoint: mean survival time, dose: 150.0 mg/kg/injection, schedule: Q01DX001 (ip), vehicle: saline)?
**A.** 97 % of control

**Q.** And the T/C (endpoint: mean survival time, dose: 300.0 mg/kg/injection, schedule: Q01DX001 (ip), vehicle: saline)?
**A.** 95 % of control

**Q.** How did the T/C (endpoint: mean survival time, dose: 0.39 mg/kg/injection, schedule: Q01DX009 (ip), vehicle: saline) turn out when [CH3][Sn]([Br])([Br])[CH2]CCCBr was run?
**A.** 90 % of control

**Q.** And the T/C (endpoint: mean survival time, dose: 0.78 mg/kg/injection, schedule: Q01DX009 (ip), vehicle: saline)?
**A.** 97 % of control

**Q.** And the T/C (endpoint: mean survival time, dose: 1.56 mg/kg/injection, schedule: Q01DX009 (ip), vehicle: saline)?
**A.** 97 % of control

**Q.** What about the T/C (endpoint: mean survival time, dose: 6.25 mg/kg/injection, schedule: Q01DX009 (ip), vehicle: saline) of the same compound?
**A.** 110 % of control

**Q.** How did the T/C (endpoint: mean survival time, dose: 50.0 mg/kg/injection, schedule: Q01DX009 (ip), vehicle: saline sonified) turn out when N#CO was run?
**A.** 100 % of control

**Q.** And the T/C (endpoint: mean survival time, dose: 100.0 mg/kg/injection, schedule: Q01DX009 (ip), vehicle: saline sonified)?
**A.** 118 % of control

**Q.** And the T/C (endpoint: mean survival time, dose: 100.0 mg/kg/injection, schedule: Q04DX003 (ip), vehicle: saline)?
**A.** 98 % of control

**Q.** What about the T/C (endpoint: mean survival time, dose: 200.0 mg/kg/injection, schedule: Q04DX003 (ip), vehicle: saline) of the same compound?
**A.** 112 % of control

Source: PubChem BioAssay AID256 (DTP/NCI, 2004)
